The values that follow come from publication PMC5041076, “Ilex kaushue and Its Bioactive Component 3,5-Dicaffeoylquinic Acid Protected Mice from Lipopolysaccharide-Induced Acute Lung Injury” (Scientific Reports, 2016).

Structures are written as SMILES. “Also recorded” adds a separate entry of the source.

The test system of data set [1] is LPS-stimulated RAW 264.7 cells. On the set-up: method as in PMID 25975516. The conditions noted are these: LPS-stimulated RAW 264.7 cells ref 45; cited from earlier work.
In data set [2] the test system is LTB4-induced human neutrophils. Nature of the data set: Elastase release in LTB4-induced neutrophils. The class given is cell-based. The conditions noted are these: Neutrophil, inducer LTB4, Table S2. The protocol:
(§1) All assays were performed as described previously[58],[59]. Neutrophils isolated from the blood of healthy volunteers (20–30 years old) were resuspended in a Ca^2+-free HBSS buffer (pH 7.4) at 4 °C before use. O2^.− generation was measured based on reduction of ferricytochrome c. In brief, after supplementation with 0.5 mg/ml ferricytochrome c and 1 mM Ca^2+, neutrophils were equilibrated at 37 °C for 2 min and incubated with the specified drugs for 5 min. Neutrophils were activated using 30 nM fMLF or 100 nM LTB4 for 10 min after addition of cytochalasin B (CB, 1 μg/mL) for 3 min. Changes in absorbance concomitant with reduction of ferricytochrome c at 550 nm were continuously monitored. For elastase release, neutrophils (6 × 10^5 cells/mL) were mixed with methoxysuccinyl-Ala-Ala-Pro-Val-pNA (100 μM) substrate at 37 °C for 5 min. […] Inhibition of superoxide generation and elastase release were calculated in keeping with previous reports.

The target of data set [3] is Human thrombin (Homo sapiens, UniProt P00734). Nature of the data set: Serine protease enzyme inhibition assay, thrombin.
For data set [4], the system named is LPS-induced ALI in mice. Nature of the data set: LPS-induced ALI in mice. The class given is in vivo, mouse. The protocol:
Mice were randomly divided into nine groups (n = 6 per group): (1) Vehicle, (2) IKWE (500 mg/kg), (3) 3,5-DCQA (50 mg/kg), (4) LPS, (5) LPS + DEX (10 mg/kg), (6) LPS + IKWE (250 mg/kg), (7) LPS + IKWE (500 mg/kg), (8) LPS + 3,5-DCQA (25 mg/kg) and (9) LPS + 3,5-DCQA (50 mg/kg). Agents were dissolved in vehicle solution (PBS containing 10% Tween-80). All animals were pretreated intraperitoneally with 100 μL vehicle solution or agents, respectively, 1 h before PBS or LPS (Sigma, Escherichia coli. 055:B5) intratracheal injection (5 mg/kg in 50 μL of PBS)[26],[27]. Mice were sacrificed at 6 h post-dosage and the left lung collected for histological examination or MPO activity measurement. Lung tissue was fixed with 10% formalin before embedding with paraffin wax and routine H&E staining. MPO activity was measured as described earlier. The right lobes were prepared for W/D weight ratio determination or BALF analysis. To obtain the W/D weight ratio, wet tissues were weighed immediately after collection, dried in the oven at 80 °C for 48 h and re-weighed. For post-treatment experiments, mice treated with vehicle or 3,5-DCQA (50 mg/kg) intraperitoneally 1 h after LPS treatment.
Mice were sacrificed and hilum of the left lung sealed. BALF was collected following injection with 0.2, 0.2, 0.3, 0.3 or 0.5 mL PBS. BALF samples were combined and centrifuged at 1,000 rpm for 15 min at 4 °C. Total proteins in the supernatant fraction were determined using the protein assay dye (BIO-RAD, 500-0006) with BSA as the reference and TNF-α and IL-6 levels measured with ELISA kits (eBioscience, 88-7324-88 and 88-7064-88). Cell pellets from BALF were resuspended in 100 μL PBS and cytospun (200 g, 3 min) onto a glass microscope slide, followed by staining with Liu’s stain. Neutrophils were counted under a light microscope in five randomly selected fields (×200 magnification)[60].

The conditions of data set [5]: after intravenous administration ref 46, 47, 49; cited from earlier work.
In data set [6] the target is T1, Bovine chymotrypsin (Bos taurus, UniProt P00766).
T1 construct: purchased Sigma-Aldrich C4129
As to the kind of experiment: Serine protease enzyme inhibition assay, chymotrypsin. The class given is biochemical. Particulars: mean ± S.E.M. (n ≥ 3).

For data set [7], the system named is fMLF/CB-activated neutrophils. As to the kind of experiment: O2.- generation in fMLF/CB-activated neutrophils (ferricytochrome c reduction). The class given is cell-based, human. The conditions noted are these: Neutrophil; fMLF/CB-activated human neutrophils. The procedure: as §1
The target of data set [8] is T2, Human neutrophil elastase (Homo sapiens, UniProt P08246).
T2 construct: purchased Enzo BML-SE284
T2 sequence (P08246 30-267): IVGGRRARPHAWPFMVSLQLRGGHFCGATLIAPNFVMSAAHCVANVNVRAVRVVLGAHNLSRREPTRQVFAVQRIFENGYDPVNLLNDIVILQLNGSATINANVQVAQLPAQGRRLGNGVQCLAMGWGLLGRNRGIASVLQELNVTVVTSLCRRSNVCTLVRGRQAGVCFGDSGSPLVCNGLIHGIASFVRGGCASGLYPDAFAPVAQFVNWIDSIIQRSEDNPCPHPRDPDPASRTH
As to the kind of experiment: Serine protease enzyme inhibition assay, HNE. The class given is biochemical.

Data set [9] relates to Vav. As to the kind of experiment: Immunoblotting of Vav phosphorylation in fMLF-activated neutrophils. The format is cell-based, human. Particulars: 10 μM, 5 min before fMLF (0.1 μM) 0.5 min, Western blot; listed as 3,5-DCQA. The procedure:
(§2) Neutrophils were pretreated with DMSO or 3,5-DCQA (10 μM) for 5 min before fMLF stimulation for 0.5 min at 37 °C. Cells were lysed with lysis buffer consisting of 50 mM HEPES (pH 7.4), 100 mM NaCl, 1 mM Ca^2+, 2 mM Na3VO4, 1 mM phenylmethanesulfonyl fluoride, 5% b-mercaptoethanol, 10 mM p-nitrophenyl phosphate, 1% protease inhibitor cocktail (Sigma-Aldrich) and 1% Triton X-100. Cell lysates were collected by centrifugation at 14,000 rpm for 20 min at 4 °C. After gel electrophoresis and transferring to membranes, samples were blocked with 5% nonfat milk in a mixture of Tris-buffer saline and Tween 20. Target protein was identified by the corresponding primary antibody overnight at 4 °C. Membranes were incubated with horseradish peroxidase-conjugated, secondary anti-rabbit or anti-mouse antibodies at room temperature for 1 h. After washing, enhanced chemiluminescence solution was used and protein expression was analyzed by the BioSpectrum Imaging System (UVP, Upland, CA). The quantitative ratio of target protein was normalized to total protein or GAPDH.

Data set [10] deals with Src family kinases. Nature of the data set: Immunoblotting of Src family kinase phosphorylation in fMLF-activated neutrophils. The format is cell-based, human. Particulars: 10 μM, 5 min before fMLF (0.1 μM) 0.5 min, Western blot; listed as 3,5-DCQA. The procedure:
as §2
On the technique in general: Immunoblotting shows a protein as a band on a membrane.

The subject of data set [11] is human neutrophils. On the set-up: method as in PMID 12384183. The conditions noted are these: 100 μM, human neutrophils ref 35; cited from earlier work.
For data set [12], the target named is T3, Human proteinase 3 (Homo sapiens, UniProt P24158).
T3 construct: purchased Merk 539483
T3 sequence (P24158 28-256): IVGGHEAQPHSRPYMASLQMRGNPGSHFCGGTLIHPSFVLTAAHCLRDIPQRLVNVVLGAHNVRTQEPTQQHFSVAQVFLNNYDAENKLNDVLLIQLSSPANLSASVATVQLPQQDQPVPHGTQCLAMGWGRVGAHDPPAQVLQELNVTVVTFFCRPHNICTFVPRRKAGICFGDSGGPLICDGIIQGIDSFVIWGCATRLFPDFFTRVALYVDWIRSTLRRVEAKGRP
Nature of the data set: Serine protease enzyme inhibition assay, proteinase 3. The class given is biochemical. Particulars: mean ± S.E.M. (n ≥ 3).

The target of data set [13] is T4, Human cathepsin G (Homo sapiens, UniProt P08311).
T4 construct: purchased Enzo BML-SE283
T4 sequence (P08311 21-255): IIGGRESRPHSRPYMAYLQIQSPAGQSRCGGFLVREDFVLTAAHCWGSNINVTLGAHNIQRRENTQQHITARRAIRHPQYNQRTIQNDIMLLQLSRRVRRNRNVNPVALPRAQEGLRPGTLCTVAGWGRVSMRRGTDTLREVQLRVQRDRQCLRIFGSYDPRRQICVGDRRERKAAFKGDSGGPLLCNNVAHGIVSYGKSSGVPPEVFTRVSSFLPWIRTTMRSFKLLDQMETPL
As to the kind of experiment: Serine protease enzyme inhibition assay, cathepsin G. Particulars: mean ± S.E.M. (n ≥ 3). The format is biochemical.

Data set [14] concerns fMLF/CB-activated neutrophils. Nature of the data set: Elastase release in fMLF/CB-activated neutrophils. The format is cell-based. The conditions noted are these: read-out: IC50 HNE (NE activity / elastase release). The protocol:
as §1

The subject of data set [15] is Akt. As to the kind of experiment: Immunoblotting of Akt phosphorylation in fMLF-activated neutrophils. The format is cell-based, human. The conditions noted are these: 10 μM, 5 min before fMLF (0.1 μM) 0.5 min, Western blot; listed as 3,5-DCQA. The procedure: as §2
The mark [16] stands for this setting: pretreatment i.p. 1 h before LPS, 6 h.

Regarding `O=C(C=Cc1ccc(O)c(O)c1)OC1CC(O)(C(=O)O)CC(OC(=O)C=Cc2ccc(O)c(O)c2)C1O` (stereo not shown) [Compound 6, 3,5-dicaffeoylquinic acid], the “TNF-α and IL-6 expression” value in [1] is “able to reduce”. The IC50 in [2] was 2.9 ± 0.55 µM; in data set [3] it was above 30 µM; in [6] it was above 30 µM; in data set [7] it was 1.92 ± 0.54 µM; in [8] (enzyme assay, mean ± S.E.M. (n ≥ 3), read-out: IC50 HNE), 1.86 ± 0.06 µM; in data set [12] it was above 30 µM. The IC50 is above 30 µM in data set [13]; 12 ± 0.6 µM in data set [14] (Homo sapiens, Neutrophil); above 10 µM in [14] (fMLF/CB-activated human neutrophils). The “pathological features of ALI, post-treatment” value in data set [4] (50 mg/kg i.p. 1 h after LPS) is “significantly improved”. Also, the “levels of proinflammatory cytokines (TNF-α and IL-6) in BALF” value in data set [4] (setting [16]) is reported as “Reduced levels”. The “lung edema (W/D weight ratio)” value in data set [4] (setting [16]) is reported as “improve lung edema”. Besides, the “accumulation / infiltration of neutrophils in lung tissue (MPO activity, BALF, histology)” value in data set [4] (pretreatment i.p. 1 h before LPS, 6 h, listed as 3,5-DCQA) is listed as “suppress accumulation of neutrophils; also recorded: significantly reduced”. Also, in data set [4] (pretreatment i.p. 1 h before LPS, IKWE 500 mg/kg, 3,5-DCQA 50 mg/kg), the “pathological features of ALI (hemorrhage, infiltrating neutrophils, thickening of alveolar wall)” value is “significantly improved”. Further, the “time detectable in the plasma” value in [5] is 4 h. Also, the “Inh % (HNE inhibition)” value in data set [8] (at 30 M (so in the source), Table S3) was found to be 90.53 ± 0.52%. Further, the “selectivity of inhibitory effect among serine proteases” value in data set [8] (five serine proteases examined) is recorded as “high selectivity for HNE”. For the same compound, the “phosphorylation of Vav” value in [9] is recorded as “reduce phosphorylation; also recorded: inhibited the phosphorylation”. The “phosphorylation of SFKs” value in data set [10] is given as “reduce phosphorylation; also recorded: inhibited the phosphorylation”. For the same compound, in data set [11], the “elastase release, myeloperoxidase activity and superoxide production” value is “able to inhibit”. Further, the “phosphorylation of Akt” value in data set [15] is listed as “did not inhibited the phosphorylation”.
